Experimental data reported in patent US20240317744A1, “Bicyclic Ureas As Kinase Inhibitors” (Incyte Corporation, priority 2023, published 2024).

Key:
[1] = molecular target: T1, pseudo-kinase domain (JH2, amino-acids 536-812) of human V617F mutant JAK2 (Homo sapiens, UniProt O60674, F794H/V617F/W659A/W777A); test: JAK2 LanthaScreen JH2-V617F Binding Assay; details: JAK2 JH2-V617F 0.26 nM, 50 nM tracer, 1 hour at 25° C.; read-out: JH2 BIND V617F
T1 construct: pseudo-kinase domain (JH2, amino-acids 536-812 with 3 surface mutations W659A, W777A, F794H); His (C); purchased BPS Bioscience 79498; host or cells: baculovirus expression system
Method in brief: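 TR-FRET tracer displacement: 0.26 nM protein, 50 nM tracer, 0.25 nM SA-Tb, 50 mM Tris pH 7.5, 10 mM MgCl2, 5 mM DTT; 1 h, 25° C. NSB = 2 mM ATP. IC50, 4-parameter curve.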

[2] = molecular target: T2, pseudo-kinase domain (JH2, amino-acids 536-812) of human Wild Type JAK2 (Homo sapiens, UniProt O60674, F794H/W659A/W777A); test: JAK2 LanthaScreen JH2-WT Binding Assay; details: JAK2 JH2-WT 0.145 nM, 50 nM tracer, 1 hour at 25° C.; read-out: JH2 BIND WT
T2 construct: pseudo-kinase domain (JH2, amino-acids 536-812 with 3 surface mutations W659A, W777A, F794H); His (C); purchased BPS Bioscience 79463; host or cells: baculovirus expression system
Method in brief: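 Compounds, serially diluted, were mixed with 0.145 nM JH2 domain, 50 nM tracer and 0.25 nM streptavidin-Tb cryptate, then incubated 1 hour at 25° C before LanthaScreen reading. Wells containing 2 mM ATP defined non-specific binding. Four-parameter dose-response curves gave IC50.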

[3] = molecular target: T3, catalytic domain (JH1, amino acids 826-1132) of human JAK2 (Homo sapiens, UniProt O60674); test: JAK2 LanthaScreen JH1 Binding Assay; details: JAK2 JH1 1.5 nM, 50 nM tracer, 2 hours at 25° C.; read-out: JH1 BIND
T3 construct: catalytic domain (JH1, amino acids 826-1132) of human JAK2; FLAG (N); biotin (biotinylated); purchased Carna Biosciences 08-445-20N; host or cells: baculovirus expression system
Method in brief: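 TR-FRET tracer-displacement format: compound IC50 from four-parameter curves after 2 h at 25° C. Reaction held 1.5 nM biotinylated, FLAG-tagged JH1 (aa 826-1132), 50 nM tracer, 0.5 nM Streptavidin-Tb, pH 7.5 Tris buffer; 2 mM ATP set nonspecific background.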

[4] = molecular target: catalytic domain (JH1, amino acids 808-1132) of human JAK2 (Homo sapiens, UniProt O60674); test: JAK2 HTRF Enzyme Activity Assay; assay type: biochemical; details: ATP 30 µM, 60 minutes at 25° C.; read-out: V617F ENZ 30 UM
catalytic domain (JH1, amino acids 808-1132) of human JAK2, sequence (O60674 808-1132 limits assumed): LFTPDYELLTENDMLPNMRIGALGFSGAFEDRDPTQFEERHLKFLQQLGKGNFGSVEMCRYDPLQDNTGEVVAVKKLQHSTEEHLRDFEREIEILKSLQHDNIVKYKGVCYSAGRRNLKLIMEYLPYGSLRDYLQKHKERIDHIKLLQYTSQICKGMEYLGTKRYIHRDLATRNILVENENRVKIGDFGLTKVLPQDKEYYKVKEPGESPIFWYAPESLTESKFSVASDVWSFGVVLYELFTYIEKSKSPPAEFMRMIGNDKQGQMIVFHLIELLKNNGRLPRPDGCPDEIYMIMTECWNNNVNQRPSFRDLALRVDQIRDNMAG

T3 sequence (O60674 826-1132): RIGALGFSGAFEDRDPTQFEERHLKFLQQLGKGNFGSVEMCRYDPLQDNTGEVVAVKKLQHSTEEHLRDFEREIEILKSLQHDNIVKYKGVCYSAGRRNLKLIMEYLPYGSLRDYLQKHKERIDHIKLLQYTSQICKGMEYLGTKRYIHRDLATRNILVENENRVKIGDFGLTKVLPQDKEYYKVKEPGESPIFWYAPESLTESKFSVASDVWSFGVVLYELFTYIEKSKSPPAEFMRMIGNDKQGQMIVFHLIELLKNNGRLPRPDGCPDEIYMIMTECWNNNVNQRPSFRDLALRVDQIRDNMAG
T1 sequence (O60674 536-812 V617F/W659A/W777A/F794H): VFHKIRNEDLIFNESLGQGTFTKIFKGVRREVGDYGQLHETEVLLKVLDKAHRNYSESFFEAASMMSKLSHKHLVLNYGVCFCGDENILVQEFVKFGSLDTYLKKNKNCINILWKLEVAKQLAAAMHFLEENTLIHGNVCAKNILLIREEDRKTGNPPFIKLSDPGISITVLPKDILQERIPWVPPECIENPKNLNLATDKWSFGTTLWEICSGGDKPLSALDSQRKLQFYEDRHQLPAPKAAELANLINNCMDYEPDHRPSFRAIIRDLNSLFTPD
T2 sequence (O60674 536-812 W659A/W777A/F794H): as the sequence (O60674 536-812 V617F/W659A/W777A/F794H) above, with F82V counted along it

Compound | IC50 [1] | IC50 [2] | IC50 [3] | IC50 [4]
Cn1cc(-c2cc(NC(=O)OC3CCC3)cc(Nc3cc4c(cn3)n(C)c(=O)n4[C@@H]3CC[C@@H](NC(=O)Oc4ccc(F)cc4)C3)c2)cn1 [Example 49, 4-Fluorophenyl ((1R,3R)-3-(6-((3-((cyclobutoxycarbonyl)amino)-5-(1-methyl-1H-pyrazol-4-yl)phenyl)amino)-3-methyl-2-oxo-2,3-dihydro-1H-imidazo[4,5-c]pyridin-1-yl)cyclopentyl)carbamate] | ≤ 10 nM | ≤ 10 nM | > 1000 nM | > 1000 nM
[2H]C([2H])([2H])n1c(=O)n([C@@H]2CC[C@@H](NC(=O)OC)C2)c2cc(Nc3cc(C(C)(C)O)c4cc(-c5cnn(C)c5)cc(C(F)(F)F)c4n3)ncc21 [Example 94, Methyl ((1R,3R)-3-(6-((4-(2-hydroxypropan-2-yl)-6-(1-methyl-1H-pyrazol-4-yl)-8-(trifluoromethyl)quinolin-2-yl)amino)-3-(methyl-d3)-2-oxo-2,3-dihydro-1H-imidazo[4,5-c]pyridin-1-yl)cyclopentyl)carbamate] | ≤ 10 nM | ≤ 10 nM | > 1000 nM | > 1000 nM
[2H]C([2H])([2H])n1c(=O)n([C@@H]2CC[C@@H](NC(=O)OC)C2)c2cc(Nc3cc(C(=O)N4CCCC(F)(F)C4)c4cccc(C(F)(F)F)c4n3)ncc21 [Example 16, Methyl ((1R,3R)-3-(6-((4-(3,3-difluoropiperidine-1-carbonyl)-8-(trifluoromethyl)quinolin-2-yl)amino)-3-(methyl-d3)-2-oxo-2,3-dihydro-1H-imidazo[4,5-c]pyridin-1-yl)cyclopentyl)carbamate] | ≤ 10 nM | ≤ 10 nM | > 1000 nM | > 1000 nM
CCOC(=O)c1cnc(Nc2cc(Nc3cc4c(cn3)n(C)c(=O)n4[C@@H]3CC[C@@H](NC(=O)OC)C3)cc(-c3cccc(C#N)c3)c2)o1 [Example 1, Ethyl 2-((3′-cyano-5-((1-((1R,3R)-3-((methoxycarbonyl)amino)cyclopentyl)-3-methyl-2-oxo-2,3-dihydro-1H-imidazo[4,5-c]pyridin-6-yl)amino)-[1,1′-biphenyl]-3-yl)amino)oxazole-5-carboxylate] | 100 to 500 nM | 10 to 100 nM | > 1000 nM | > 1000 nM
[2H]C([2H])([2H])n1c(=O)n([C@@H]2CC[C@@H](NC(=O)OC)C2)c2cc(Nc3cccc(-n4cc(C(F)(F)F)cn4)n3)ncc21 [Example 108, Methyl ((1R,3R)-3-(3-(methyl-d3)-2-oxo-6-((6-(4-(trifluoromethyl)-1H-pyrazol-1-yl)pyridin-2-yl)amino)-2,3-dihydro-1H-imidazo[4,5-c]pyridin-1-yl)cyclopentyl)carbamate] | ≤ 10 nM | ≤ 10 nM | > 1000 nM | > 1000 nM
[2H]C([2H])([2H])n1c(=O)n([C@@H]2CC[C@@H](NC(=O)OC)C2)c2cc(Nc3ccc4c(n3)n(-c3cnn(C(F)F)c3)c(=O)n4CC3(C#N)CC3)ncc21 [Example 114, Methyl ((1R,3R)-3-(6-((1-((1-cyanocyclopropyl)methyl)-3-(1-(difluoromethyl)-1H-pyrazol-4-yl)-2-oxo-2,3-dihydro-1H-imidazo[4,5-b]pyridin-5-yl)amino)-3-(methyl-d3)-2-oxo-2,3-dihydro-1H-imidazo[4,5-c]pyridin-1-yl)cyclopentyl)carbamate] | ≤ 10 nM | ≤ 10 nM | > 1000 nM | > 1000 nM
[2H]C([2H])([2H])n1c(=O)n([C@@H]2CC[C@@H](NC(=O)OC)C2)c2cc(Nc3cc(CN4CCOCC4)cc(-c4ccc5c(c4)OCCO5)n3)ncc21 [Example 74, Methyl ((1R,3R)-3-(6-((6-(2,3-dihydrobenzo[b][1,4]dioxin-6-yl)-4-(morpholinomethyl)pyridin-2-yl)amino)-3-(methyl-d3)-2-oxo-2,3-dihydro-1H-imidazo[4,5-c]pyridin-1-yl)cyclopentyl)carbamate] | ≤ 10 nM | ≤ 10 nM | > 1000 nM | > 1000 nM
COC(=O)Nc1cc(Nc2cc3c(cn2)n(C)c(=O)n3C2CC3(CC(NS(=O)(=O)C4CC4)C3)C2)cc(-c2cnn(C)c2)c1 (centres unmarked) [Example 26, Methyl (3-((1-(6-(cyclopropanesulfonamido)spiro[3.3]heptan-2-yl)-3-methyl-2-oxo-2,3-dihydro-1H-imidazo[4,5-c]pyridin-6-yl)amino)-5-(1-methyl-1H-pyrazol-4-yl)phenyl)carbamate] | 10 to 100 nM | 10 to 100 nM | > 1000 nM | > 1000 nM
[2H]C([2H])([2H])n1c(=O)n([C@@H]2CC[C@@H](NC(=O)OC)C2)c2cc(Nc3ccc4cc(NC5CCC(F)(F)C5)cc(C(F)(F)F)c4n3)ncc21 (stereo partly drawn) [Example 18, Methyl ((1R,3R)-3-(6-((6-((3,3-difluorocyclopentyl)amino)-8-(trifluoromethyl)quinolin-2-yl)amino)-3-(methyl-d3)-2-oxo-2,3-dihydro-1H-imidazo[4,5-c]pyridin-1-yl)cyclopentyl)carbamate] | ≤ 10 nM | ≤ 10 nM | > 1000 nM | > 1000 nM
COC(=O)N[C@@H]1CC[C@@H](n2c(=O)n(C)c3cnc(Nc4cc(NC(=O)C5(F)CCOCC5)cc(-c5cccc(C#N)c5)c4)cc32)C1 [Example 2, Methyl ((1R,3R)-3-(6-((3′-cyano-5-(4-fluorotetrahydro-2H-pyran-4-carboxamido)-[1,1′-biphenyl]-3-yl)amino)-3-methyl-2-oxo-2,3-dihydro-1H-imidazo[4,5-c]pyridin-1-yl)cyclopentyl)carbamate] | ≤ 10 nM | ≤ 10 nM | > 1000 nM | > 1000 nM
[2H]C([2H])([2H])n1c(=O)n([C@@H]2CC[C@@H](NC(=O)OC)C2)c2cc(Nc3cc(C(=O)N4CCC(C#N)CC4)c4cccc(C(F)(F)F)c4n3)ncc21 [Example 6, Methyl ((1R,3R)-3-(6-((4-(4-cyanopiperidine-1-carbonyl)-8-(trifluoromethyl)quinolin-2-yl)amino)-3-(methyl-d3)-2-oxo-2,3-dihydro-1H-imidazo[4,5-c]pyridin-1-yl)cyclopentyl)carbamate] | ≤ 10 nM | ≤ 10 nM | 100 to 500 nM | 100 to 500 nM
COC(=O)N[C@@H]1CC[C@@H](n2c(=O)n(C)c3cnc(Nc4cc(NC(=O)C5CC5)cc(-c5cnn(C)c5)c4)cc32)C1 [Example 57, Methyl ((1R,3R)-3-(6-((3-(cyclopropanecarboxamido)-5-(1-methyl-1H-pyrazol-4-yl)phenyl)amino)-3-methyl-2-oxo-2,3-dihydro-1H-imidazo[4,5-c]pyridin-1-yl)cyclopentyl)carbamate] | ≤ 10 nM | ≤ 10 nM | > 1000 nM | > 1000 nM
[2H]C([2H])([2H])n1c(=O)n([C@@H]2CC[C@](C)(NC(=O)C3CC3)C2)c2cc(Nc3ccc4c(n3)c(-c3cnn(C(F)(F)F)c3)nn4CC(C)(C)O)ncc21 [Example 119, N-((1S,3R)-3-(6-((1-(2-Hydroxy-2-methylpropyl)-3-(1-(trifluoromethyl)-1H-pyrazol-4-yl)-1H-pyrazolo[4,3-b]pyridin-5-yl)amino)-3-(methyl-d3)-2-oxo-2,3-dihydro-1H-imidazo[4,5-c]pyridin-1-yl)-1-methylcyclopentyl)cyclopropanecarboxamide] | ≤ 10 nM | ≤ 10 nM | > 1000 nM | > 1000 nM
COC(=O)Nc1cc(Nc2cc3c(cn2)n(C)c(=O)n3[C@@H]2CC[C@H](F)C2)cc(-c2cnn(C)c2)c1 [Example 31, Methyl (3-((1-((1R,3S)-3-fluorocyclopentyl)-3-methyl-2-oxo-2,3-dihydro-1H-imidazo[4,5-c]pyridin-6-yl)amino)-5-(1-methyl-1H-pyrazol-4-yl)phenyl)carbamate] | 10 to 100 nM | 10 to 100 nM | > 1000 nM | > 1000 nM
